According to publication PMC9458111, “New 1,2,3-Triazole-Coumarin-Glycoside Hybrids and Their 1,2,4-Triazolyl Thioglycoside Analogs Targeting Mitochondria Apoptotic Pathway: Synthesis, Anticancer Activity and Docking Simulation” (Molecules, 2022):

Legend:
[1] = system: human colon cell line (HCT-116 cell lines); assay: MTT cytotoxicity assay, HCT-116; type: cell-based; conditions: for cytotoxicity at 100 µM: HCT-116, 48 h
Method: (§1) The synthesized compounds were studied for their cytotoxic activity against several human cancer cell lines, namely human osteosarcoma (HOS cell lines), human breast adenocarcinoma (MDA-MB-231 cell lines), human breast cancer (MCF-7 cell lines), human colorectal adenocarcinoma (Caco-2 cell lines) and human colon cell line (HCT-116 cell lines) using MTT assay at 100 µM, and the results were outlined as shown in Table 1.
(§2) Human osteosarcoma (HOS cell line), human breast adenocarcinoma (MDA-MB-231cell lines), human breast cancer (MCF-7 cell lines), human colorectal adenocarcinoma (Caco2 cell lines), human colon cell line (HCT-116 cell lines), normal human cell lines (BJ-1), and “a telomerase immortalized normal foreskin fibroblast cell line” were obtained from Karolinska Center, Department of Oncology and Pathology, Karolinska Institute and Hospital, Stockholm, Sweden.
(§3) Following culturing for 10 days, the cells were seeded at concentration of 10 × 10^3 cells per well in case of MCF-7 & MDA, 20 × 10^3 cells/well in a fresh complete growth medium in case of HCT-116, Caco2, & HOS and 40 × 10^3 cells/well in case of BJ-1 at 37 °C for 24 h in a water jacketed carbon dioxide incubator. After 48 h’ incubation, the medium was aspirated, and then 40 μl MTT salt (2.5 mg/mL) were added for a further 4 h; 200 μl 10% sodium dodecyl sulphate (SDS) in deionized water were added to each well and incubated overnight at 37 °C. The absorbance was measured at 595 nm with reference 690 nm. Doxorubicin was used as positive control, and 0.5% DMSO was used as negative control. IC50 values were calculated, using a probit analysis, and by utilizing the SPSS computer program (SPSS for Windows, statistical analysis software package/version 9/1989 SPSS Inc., Chicago, IL, USA).

EGFR = EGFR (Homo sapiens, UniProt P00533); assay: EGFR kinase inhibitory assay (Kinase-Glo Max luminescence); type: biochemical; conditions: for IC50: mean of three values, read-out: IC50 (Mean ± SEM), EGFR
VEGFR-2 = VEGFR-2 (Homo sapiens, UniProt P35968); assay: VEGFR-2 inhibitory assay (ELISA); type: biochemical; conditions: for IC50: mean of three values, read-out: IC50 (Mean ± SEM), VEGFR-2
Method: The cells were harvested, and the homogenates were prepared in saline using a tight pestle homogenizer until complete cell disruption. The kit uses a double-antibody sandwich enzyme-linked immunosorbent assay (ELISA) to determine the level of human VEGFR-2 in samples. A monoclonal antibody for VEGFR-2 was pre-coated onto 96-well plates. The test samples are added to the wells, and a biotinylated detection polyclonal antibody from goat specific for VEGFR-2 was added subsequently followed by washing with PBS buffer. Avidin-Biotin-Peroxidase complex was added, and the unbound conjugates were washed away with PBS buffer. HRP substrate TMB was used to visualize HRP enzymatic reaction. TMB was catalyzed by HRP to produce a blue color product that changed into yellow after adding acidic stop solution. The density of yellow color is proportional to the human VEGFR-2 amount of the sample captured in the plate. The chroma of color and the concentration of the human VEGFR-2 of the samples were positively correlated, and the optical density was determined at 450 nm. The level of human VEGFR-2 in samples was calculated (pg/ml) as duplicate determinations from the standard curve. Percent inhibition was calculated in comparison to control untreated cells.

[2] = system: human breast adenocarcinoma (MDA-MB-231 cell lines); assay: MTT cytotoxicity assay, MDA-MB-231; type: cell-based; conditions: MDA-MB-231, 48 h
Method: as §1, §2, §3

[3] = system: human breast cancer (MCF-7 cell lines); assay: MTT cytotoxicity assay, MCF-7; type: cell-based; conditions: for cytotoxicity at 100 µM: MCF7, 48 h; for IC50: MCF7, MTT, 0.78–100 µM, ± SD
Method: as §1, §2, §3

[4] = system: human colorectal adenocarcinoma (Caco-2 cell lines); assay: MTT cytotoxicity assay, Caco-2; type: cell-based; conditions: Caco-2, 48 h
Method: as §1, §2, §3

CDK-2/cyclin A2 = CDK-2/cyclin A2 (Homo sapiens, UniProt P24941); assay: CDK-2/cyclin A2 inhibitory assay (ELISA); type: biochemical; conditions: for IC50: mean of three values, read-out: IC50 (Mean ± SEM), CDK-2/Cyclin A2
Method: Assay of CDK-2/cyclin A2 was achieved through ELISA using an affinity tag labeled capture antibody. […] After the incubation period, the unrestrained substance has been discarded, and the wells have been washed. The added TMB (3,3′,5,5′-tetramethylbenzidine) substrate was prompted by Horseradish peroxidase (HRP), and blue coloration appeared. This reaction was stopped through the addition of stop solution to complete changing in colour from blue to yellow. The created signals were equivalent to the quantity of bound analyte, and the Robonik P2000 ELISA reader was used to record the intensity at a certain wavelength (450 nm).

[5] = system: human osteosarcoma (HOS cell lines); assay: MTT cytotoxicity assay, HOS; type: cell-based; conditions: 48 h
Method: as §1, §2, §3

[6] = system: normal human skin cell lines BJ-1; assay: Safety on normal human skin cells BJ-1 (MTT); type: cell-based; conditions: 100 µM
Method: To determine the selectivity and safety, all tested compounds were subjected to an assay for their safety upon normal human skin cell lines BJ-1 at a concentration of 100 µM.
as §2, §3

Chain of EGFR (P00533 25-1210): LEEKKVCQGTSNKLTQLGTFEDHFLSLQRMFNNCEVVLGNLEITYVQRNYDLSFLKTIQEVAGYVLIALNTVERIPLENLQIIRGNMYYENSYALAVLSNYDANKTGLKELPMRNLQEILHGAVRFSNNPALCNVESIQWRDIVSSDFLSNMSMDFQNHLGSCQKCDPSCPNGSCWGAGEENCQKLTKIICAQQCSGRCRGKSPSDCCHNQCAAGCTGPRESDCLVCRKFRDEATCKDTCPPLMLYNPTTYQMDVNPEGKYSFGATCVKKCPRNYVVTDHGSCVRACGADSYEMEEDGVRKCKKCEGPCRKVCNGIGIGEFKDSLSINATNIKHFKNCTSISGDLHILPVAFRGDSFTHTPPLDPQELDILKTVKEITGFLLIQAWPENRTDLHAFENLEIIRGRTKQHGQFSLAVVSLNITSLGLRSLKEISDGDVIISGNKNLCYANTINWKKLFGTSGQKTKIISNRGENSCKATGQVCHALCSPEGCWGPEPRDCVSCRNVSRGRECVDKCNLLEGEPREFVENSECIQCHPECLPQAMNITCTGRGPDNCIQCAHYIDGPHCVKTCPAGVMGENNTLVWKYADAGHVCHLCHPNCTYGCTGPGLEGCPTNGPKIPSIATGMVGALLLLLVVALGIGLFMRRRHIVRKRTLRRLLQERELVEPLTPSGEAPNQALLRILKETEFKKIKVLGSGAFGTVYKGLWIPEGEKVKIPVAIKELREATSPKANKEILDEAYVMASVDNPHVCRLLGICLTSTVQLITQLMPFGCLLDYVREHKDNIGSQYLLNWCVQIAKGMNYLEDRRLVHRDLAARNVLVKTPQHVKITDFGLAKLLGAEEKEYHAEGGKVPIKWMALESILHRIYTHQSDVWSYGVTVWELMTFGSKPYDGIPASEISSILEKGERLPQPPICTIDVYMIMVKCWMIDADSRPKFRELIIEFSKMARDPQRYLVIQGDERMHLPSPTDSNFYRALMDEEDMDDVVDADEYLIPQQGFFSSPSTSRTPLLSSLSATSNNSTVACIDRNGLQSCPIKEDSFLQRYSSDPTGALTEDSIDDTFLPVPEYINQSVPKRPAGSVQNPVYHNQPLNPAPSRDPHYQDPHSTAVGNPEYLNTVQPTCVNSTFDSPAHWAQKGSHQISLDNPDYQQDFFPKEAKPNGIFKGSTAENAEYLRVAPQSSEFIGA
Chain of VEGFR-2 (P35968 20-1356): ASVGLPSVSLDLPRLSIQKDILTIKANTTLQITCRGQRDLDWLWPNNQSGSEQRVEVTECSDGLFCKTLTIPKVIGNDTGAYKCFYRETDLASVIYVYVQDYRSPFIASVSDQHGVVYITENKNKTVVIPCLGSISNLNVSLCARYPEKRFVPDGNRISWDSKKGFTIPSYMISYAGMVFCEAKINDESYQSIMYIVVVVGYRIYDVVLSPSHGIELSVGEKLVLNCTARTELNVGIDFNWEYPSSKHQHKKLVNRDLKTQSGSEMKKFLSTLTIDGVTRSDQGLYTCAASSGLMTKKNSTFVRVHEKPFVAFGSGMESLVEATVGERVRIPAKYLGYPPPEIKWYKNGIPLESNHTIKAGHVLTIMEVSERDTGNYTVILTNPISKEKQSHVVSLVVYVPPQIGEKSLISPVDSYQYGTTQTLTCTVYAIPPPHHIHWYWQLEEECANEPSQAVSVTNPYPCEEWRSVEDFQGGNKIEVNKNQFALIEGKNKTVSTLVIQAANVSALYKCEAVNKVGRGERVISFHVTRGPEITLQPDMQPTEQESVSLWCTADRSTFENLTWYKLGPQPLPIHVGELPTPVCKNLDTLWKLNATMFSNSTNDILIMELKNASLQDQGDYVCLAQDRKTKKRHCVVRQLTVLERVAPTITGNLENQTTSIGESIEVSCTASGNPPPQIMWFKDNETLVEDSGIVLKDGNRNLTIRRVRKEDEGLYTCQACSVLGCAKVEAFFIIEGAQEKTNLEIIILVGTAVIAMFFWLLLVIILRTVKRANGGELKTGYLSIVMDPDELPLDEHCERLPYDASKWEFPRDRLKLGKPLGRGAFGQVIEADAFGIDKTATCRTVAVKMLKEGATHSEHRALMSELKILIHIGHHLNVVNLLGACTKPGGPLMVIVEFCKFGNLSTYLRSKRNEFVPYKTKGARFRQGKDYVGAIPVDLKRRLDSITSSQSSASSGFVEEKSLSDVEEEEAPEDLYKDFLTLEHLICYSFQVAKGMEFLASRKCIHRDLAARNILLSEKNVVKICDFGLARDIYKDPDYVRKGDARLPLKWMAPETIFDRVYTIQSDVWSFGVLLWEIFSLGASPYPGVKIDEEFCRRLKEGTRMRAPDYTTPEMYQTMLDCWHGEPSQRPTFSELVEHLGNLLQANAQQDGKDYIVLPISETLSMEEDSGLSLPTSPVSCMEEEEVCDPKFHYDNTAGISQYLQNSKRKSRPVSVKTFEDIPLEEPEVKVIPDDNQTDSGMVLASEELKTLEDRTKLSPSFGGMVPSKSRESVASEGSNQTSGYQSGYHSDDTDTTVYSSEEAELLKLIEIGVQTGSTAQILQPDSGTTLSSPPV

Row | IC50 (EGFR) [µM] | IC50 (VEGFR-2) [µM] | melting point [°C] | IC50 (CDK-2/cyclin A2) [µM] | Inhibitory activity against EGFR (in words) (EGFR) | Inhibitory activity against VEGFR-2 (in words) (VEGFR-2) | Inhibitory activity against CDK-2/cyclin A2 (in words) (CDK-2/cyclin A2) | SMILES | cytotoxicity at 100 µM [1] [%] | cytotoxicity at 100 µM [2] [%] | cytotoxicity at 100 µM [3] [%] | IC50 [3] [µM] | cytotoxicity at 100 µM [4] [%] | cytotoxicity at 100 µM [5] [%] | IC50 ([1]; HCT-116, MTT, 0.78–100 µM, ± SD) [µM] | Toxicity on normal skin cells BJ-1 (in words) [6]
1 | 0.22 ± 0.01 | 0.93 ± 0.42 | 231 to 232 | 0.24 ± 0.2 | – | – | – | Cn1c(COc2ccc3c(-c4ccccc4)cc(=O)oc3c2)nnc1SC1OCC(O)C(O)C1O [Compound 8, 4-Phenyl-7-((4-methyl-5-(1-(β-D-xylopyranosyl)thio)-4H-1,2,4-triazol-3-yl)meth-oxy)-2H-chromen-2-one] | 23 ± 0.6 | 37.1 ± 2.3 | 60.1 ± 0.7 | 52.2 ± 1.3 | 28.4 ± 0.6 | 41.9 ± 0.7 | – | –
2 | 123 ± 0.1 | 172 ± 0.02 | 114 to 115 | 211 ± 0.05 | no inhibitory activities | no inhibitory activities | no inhibitory activities | CC(=O)OC[C@H]1O[C@@H](OCc2cn(CCCOc3ccc4c(-c5ccccc5)cc(=O)oc4c3)nn2)[C@H](OC(C)=O)[C@@H](OC(C)=O)[C@H]1OC(C)=O [Compound 21] | 64.9 ± 0.5 | 26.4 ± 0.3 | 85.4 ± 1.8 | 38.9 ± 0.8 | 59.2 ± 1.1 | 58.3 ± 1.7 | 82.8 ± 2.3 | –
3 | – | – | 188 to 189 | – | – | – | – | O=c1cc(-c2ccccc2)c2ccc(OCCCn3cc(CO[C@@H]4OC[C@@H](O)[C@H](O)[C@H]4O)nn3)cc2o1 [Compound 25] | 97.1 ± 1.1 | 94.2 ± 2.2 | 81.9 ± 0.9 | – | 82.7 ± 1.1 | 90.4 ± 0.8 | – | high toxicity

Row | SMILES | IC50 (EGFR) [µM] | IC50 (VEGFR-2) [µM] | melting point [°C] | IC50 (CDK-2/cyclin A2) [µM] | Inhibitory activity against EGFR (in words) (EGFR) | Inhibitory activity against VEGFR-2 (in words) (VEGFR-2) | Inhibitory activity against CDK-2/cyclin A2 (in words) (CDK-2/cyclin A2) | cytotoxicity at 100 µM [1] [%] | cytotoxicity at 100 µM [2] [%] | cytotoxicity at 100 µM [3] [%] | IC50 [3] [µM] | cytotoxicity at 100 µM [4] [%] | cytotoxicity at 100 µM [5] [%] | IC50 ([1]; HCT-116, MTT, 0.78–100 µM, ± SD) [µM] | Toxicity on normal skin cells BJ-1 (in words) [6]
4 | O=c1cc(-c2ccccc2)c2ccc(OCCCCn3cc(CO[C@@H]4O[C@H](CO)[C@H](O)[C@H](O)[C@H]4O)nn3)cc2o1 [Compound 26] | – | – | 195 to 196 | – | – | – | – | 83.9 ± 0.9 | 31.4 ± 0.5 | 91.8 ± 1.2 | – | 2.6 ± 0.2 | 66.9 ± 2.2 | – | high toxicity
